The record followed here is PubChem BioAssay AID258 (DTP/NCI, 2004).

Several values for one entry are separate records, joined by “and”; a condition that tells them apart may be missing. Identical values can stand only once. Inconclusive results and toxic doses are left out.

The test has as its system CD2F1 mice, L1210 leukemia sc, survival T/C. The test can be described thus: NCI In Vivo Anticancer Drug Screen. Data for tumor model L1210 Leukemia (subcutaneous) in CD2F1 (CDF1) mice. The following applies: endpoint: median survival time, higher = longer survival. The procedure, abridged: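 Antitumor activity is scored in tumor-bearing mice by comparing survival or tumor size of treated animals against vehicle-treated controls, reported as T/C.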

Take `C1CN1c1nc(N2CC2)nc(N2CC2)n1`: the T/C is 110 % of control (dose: 0.1 mg/kg/injection, schedule: Q01DX009 (ip), vehicle: saline); 108 % of control (dose: 0.1 mg/kg/injection, schedule: Q01DX009 (sc), vehicle: saline); 117 % of control (dose: 0.2 mg/kg/injection, schedule: Q01DX009 (ip), vehicle: saline); 118 % of control (dose: 0.2 mg/kg/injection, schedule: Q01DX009 (sc), vehicle: saline); 114 % of control (dose: 0.27 mg/kg/injection, schedule: Q01DX009 (ip), vehicle: saline); 110 % of control (dose: 0.27 mg/kg/injection, schedule: Q01DX009 (sc), vehicle: saline). For the same compound, the T/C by setting is: (dose: 0.4 mg/kg/injection, schedule: Q01DX009 (ip), vehicle: saline) 151 % of control; (dose: 0.45 mg/kg/injection, schedule: Q01DX009 (ip), vehicle: saline) 157 % of control; (dose: 0.45 mg/kg/injection, schedule: Q01DX009 (sc), vehicle: saline) 168 % of control; (dose: 0.6 mg/kg/injection, schedule: Q01DX009 (ip), vehicle: saline) 184 % of control; (dose: 0.6 mg/kg/injection, schedule: Q01DX009 (sc), vehicle: saline) 180 % of control; (dose: 0.8 mg/kg/injection, schedule: Q01DX009 (ip), vehicle: saline) 119 % of control. In addition, the T/C is 101 % of control (dose: 0.9 mg/kg/injection, schedule: Q01DX009 (ip), vehicle: saline) and 113 % of control (dose: 0.9 mg/kg/injection, schedule: Q01DX009 (sc), vehicle: saline).
With `CN(C)CCN1C(=O)c2cccc3cc(N)cc(c23)C1=O`, the T/C is 102 % of control and 105 % of control and 118 % of control (dose: 5.0 mg/kg/injection, schedule: Q01DX009 (ip), vehicle: acid diluted with saline); 103 % of control and 115 % of control and 121 % of control (dose: 7.0 mg/kg/injection, schedule: Q01DX009 (ip), vehicle: acid diluted with saline); 112 % of control (dose: 10.0 mg/kg/injection, schedule: Q01DX009 (ip), vehicle: acid diluted with saline); 150 % of control and 173 % of control (dose: 16.0 mg/kg/injection, schedule: Q01DX009 (ip), vehicle: acid diluted with saline); 116 % of control (dose: 24.0 mg/kg/injection, schedule: Q01DX009 (ip), vehicle: acid diluted with saline).
`S=c1nc[nH]c2c1ncn2C1CCCC1`: the T/C by setting is: (dose: 108.0 mg/kg/injection, schedule: Q01DX Z (sc), vehicle: methylcellulose (MC)) 100 % of control; (dose: 180.0 mg/kg/injection, schedule: Q01DX Z (sc), vehicle: methylcellulose (MC)) 100 % of control; (dose: 300.0 mg/kg/injection, schedule: Q01DX Z (sc), vehicle: methylcellulose (MC)) 100 % of control; (dose: 500.0 mg/kg/injection, schedule: Q01DX Z (sc), vehicle: methylcellulose (MC)) 100 % of control; (dose: 833.0 mg/kg/injection, schedule: Q01DX Z (sc), vehicle: methylcellulose (MC)) 100 % of control; (dose: 1388.0 mg/kg/injection, schedule: Q01DX Z (sc), vehicle: methylcellulose (MC)) 100 % of control.
With `CCOC(=O)C(CC(C)C)NC(=O)C(Cc1ccc(N(CCCl)CCCl)cc1)NC(C)=O` (stereo not given), the T/C is, setting by setting: (dose: 1.0 mg/kg/injection, schedule: Q01DX009 (sc), vehicle: Klucel (hydroxypropylcellulose) (HPC)) 102 % of control and 103 % of control; (dose: 2.0 mg/kg/injection, schedule: Q01DX009 (sc), vehicle: Klucel (hydroxypropylcellulose) (HPC)) 103 % of control and 98 % of control; (dose: 4.0 mg/kg/injection, schedule: Q01DX009 (sc), vehicle: Klucel (hydroxypropylcellulose) (HPC)) 104 % of control and 105 % of control; (dose: 8.0 mg/kg/injection, schedule: Q01DX009 (sc), vehicle: Klucel (hydroxypropylcellulose) (HPC)) 107 % of control and 98 % of control; (dose: 16.0 mg/kg/injection, schedule: Q01DX009 (sc), vehicle: Klucel (hydroxypropylcellulose) (HPC)) 103 % of control and 109 % of control; (dose: 28.5 mg/kg/injection, schedule: Q01DX009 (sc), vehicle: Klucel (hydroxypropylcellulose) (HPC)) 110 % of control. The T/C (dose: 32.0 mg/kg/injection, schedule: Q01DX009 (sc), vehicle: Klucel (hydroxypropylcellulose) (HPC)) is 100 % of control and 112 % of control; the T/C (dose: 42.7 mg/kg/injection, schedule: Q01DX009 (sc), vehicle: Klucel (hydroxypropylcellulose) (HPC)) was 121 % of control; the T/C (dose: 64.0 mg/kg/injection, schedule: Q01DX009 (sc), vehicle: Klucel (hydroxypropylcellulose) (HPC)) was 118 % of control and 124 % of control; the T/C (dose: 113.8 mg/kg/injection, schedule: Q01DX009 (sc), vehicle: Klucel (hydroxypropylcellulose) (HPC)) was 113 % of control; the T/C (dose: 128.0 mg/kg/injection, schedule: Q01DX009 (sc), vehicle: Klucel (hydroxypropylcellulose) (HPC)) was 113 % of control and 122 % of control; the T/C (dose: 170.7 mg/kg/injection, schedule: Q01DX009 (sc), vehicle: Klucel (hydroxypropylcellulose) (HPC)) is 120 % of control. Moreover, the T/C (dose: 384.0 mg/kg/injection, schedule: Q01DX009 (sc), vehicle: Klucel (hydroxypropylcellulose) (HPC)) is 158 % of control.
For `S=c1nc[nH]c2nc[nH]c12.[Ag]`, the T/C runs as follows: (dose: 100.0 mg/kg/injection, schedule: Q01DX Z (sc), vehicle: water) 100 % of control; (dose: 200.0 mg/kg/injection, schedule: Q01DX Z (sc), vehicle: water) 100 % of control; (dose: 400.0 mg/kg/injection, schedule: Q01DX Z (sc), vehicle: water) 100 % of control; (dose: 800.0 mg/kg/injection, schedule: Q01DX Z (sc), vehicle: water) 100 % of control; (dose: 1600.0 mg/kg/injection, schedule: Q01DX Z (sc), vehicle: water) 100 % of control.
Take `O=C(Nc1cccnc1)c1ccc([N+](=O)[O-])s1`: the T/C is 108 % of control (dose: 25.0 mg/kg/injection, schedule: Q01DX005 (ip), vehicle: saline); 102 % of control (dose: 50.0 mg/kg/injection, schedule: Q01DX005 (ip), vehicle: saline); 111 % of control (dose: 100.0 mg/kg/injection, schedule: Q01DX005 (ip), vehicle: saline).
For `CC[n+]1c(-c2ccccc2)c2cc(N)ccc2c2ccc(N)cc21`, the T/C reads like this: (dose: 5.0 mg/kg/injection, schedule: Q01DX Z (sc), vehicle: carboxymethylcellulose (CMC)) 100 % of control; (dose: 8.4 mg/kg/injection, schedule: Q01DX Z (sc), vehicle: carboxymethylcellulose (CMC)) 94 % of control; (dose: 14.0 mg/kg/injection, schedule: Q01DX Z (sc), vehicle: carboxymethylcellulose (CMC)) 100 % of control; (dose: 23.0 mg/kg/injection, schedule: Q01DX Z (sc), vehicle: carboxymethylcellulose (CMC)) 100 % of control; (dose: 39.0 mg/kg/injection, schedule: Q01DX Z (sc), vehicle: carboxymethylcellulose (CMC)) 105 % of control; (dose: 64.0 mg/kg/injection, schedule: Q01DX Z (sc), vehicle: carboxymethylcellulose (CMC)) 111 % of control.
Turning to `ONc1nc(NO)c2[nH]cnc2n1`, the T/C by setting is: (dose: 8.0 mg/kg/injection, schedule: Q01DX Z (sc), vehicle: steriod suspending solution) 100 % of control; (dose: 32.0 mg/kg/injection, schedule: Q01DX Z (sc), vehicle: steriod suspending solution) 175 % of control; (dose: 64.0 mg/kg/injection, schedule: Q01DX Z (sc), vehicle: steriod suspending solution) 200 % of control.
